Data on 22 molecules can be found in US5705533A, “10-thio-substituted 1,8-dihydroxy-9 (10H) -anthracenone pharmaceuticals” (Teva Pharmaceutical Industries Ltd., priority 1995, dated 1998).

The test system of one data set is HaCaT cells. As to the kind of experiment: Antiproliferative Activity Assay, HaCaT cell growth. The data set is classed as cell-based, human. As to conditions: 48 h. The method, then: HaCaT cells, a rapidly multiplying human keratinocyte cell line, were grown in Dulbecco's modified Eagle medium (DMEM), No. 041-11965A, Gibco) supplemented with 10% fetal calf serum, penicillin (100U/ml), streptomycin (100 μg/ml) in a humidified incubator containing 8% CO2 at 37° C. Cells ([…] /1.1 ml suspension per well) were seeded on 24-wells-multidishes and grown in DMEM. After 24 hours growth the medium was replaced with fresh medium and the test compounds (0.1-5 μM) were added. […] Controls were performed with DMSO or with medium alone. Forty-eight hours after addition of the test compound to the culture, the medium was removed and each well was rinsed with 100 μL PBS. The cells were then incubated with sterile 0.5% trypsin, 0.2% EDTA in PBS for 20 minutes at 37° C. The detached cells from each well were suspended in DMEM and dispersed into single cells by gentle pipetting through an Eppendorf pipette, and cell growth was determined directly by counting the keratinocytes in a Neubauer counting chamber using phase contrast microscopy. Inhibition was calculated by comparison of the mean values of the test compound (N=3) with the control (N=6-8) activity: (1-test compound/control)×100.

Another data set has as its target T1, 5-LO (Bos taurus, UniProt F1MQ78).
T1 construct: Polymorphonuclear leukocytes (PMNL) were prepared from sodium EDTA-anticoagulated bovine blood; endogenous in cells; host or cells: bovine polymorphonuclear leukocytes isolated from EDTA-anticoagulated blood (intact cells, A23187-stimulated)
T1 sequence (F1MQ78 1-674): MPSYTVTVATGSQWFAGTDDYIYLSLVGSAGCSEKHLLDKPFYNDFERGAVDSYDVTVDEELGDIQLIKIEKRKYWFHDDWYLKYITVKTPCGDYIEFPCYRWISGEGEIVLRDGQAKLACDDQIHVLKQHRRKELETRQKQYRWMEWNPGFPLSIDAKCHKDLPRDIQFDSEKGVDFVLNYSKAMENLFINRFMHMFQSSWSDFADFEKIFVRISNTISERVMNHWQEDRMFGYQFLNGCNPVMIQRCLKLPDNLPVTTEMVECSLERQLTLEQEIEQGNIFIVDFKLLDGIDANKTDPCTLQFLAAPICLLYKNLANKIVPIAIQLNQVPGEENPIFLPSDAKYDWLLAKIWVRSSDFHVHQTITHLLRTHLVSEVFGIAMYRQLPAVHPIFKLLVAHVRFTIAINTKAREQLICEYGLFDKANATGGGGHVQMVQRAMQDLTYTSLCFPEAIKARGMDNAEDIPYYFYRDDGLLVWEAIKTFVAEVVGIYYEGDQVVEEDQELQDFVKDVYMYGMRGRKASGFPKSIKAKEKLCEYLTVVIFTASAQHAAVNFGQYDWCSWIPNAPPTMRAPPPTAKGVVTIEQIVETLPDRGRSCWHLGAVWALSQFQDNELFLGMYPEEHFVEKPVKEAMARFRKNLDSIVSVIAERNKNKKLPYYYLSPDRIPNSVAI
Description: Bovine PMNL 5-Lipoxygenase Assay (inhibition of 5-HETE and LTB4 biosynthesis). The data set is classed as cell-based. As to conditions: for inhibition at 30 µM: PMNL, read-out: 5-LO percent inhibition. The protocol:
Polymorphonuclear leukocytes (PMNL) were prepared from sodium EDTA-anticoagulated bovine blood, essentially as described by Walstra, P. et al., "Leukotriene Formation by Bovine Polymorphonuclear Leukocytes", Biochim. Biophys. Acta, 795,499-503 (1984). Contaminating platelets were removed by repeated centrifugations at 100 g for 20 min. The purified PMN leukocytes were suspended at a concentration of 1×10^7 cells/ml in phosphate buffered saline (PBS, composed of 8.00 g NaCl, 0.20 g KCl, 1.00 g Na2 HPO4 .cndot.2H2 O, 0.15 g NaH2 PO4 .cndot.H2 O, 0.20 g KH2 PO4, adjusted to pH 7.4 with 3 N NH3 in a final volume of 1000 ml of double distilled H2 O). Cell counts were conducted with a Sysmex microcellcounter CC-130. Preincubation was performed with 2.4 ml of the suspension and 10 μl of a DMSO stock solution of each test compound at the desired concentration in PBS or vehicle control (DMSO at final concentration of 0.4%) for 15 min at 37° C. in a shaking water bath. The syntheses of LTB 4 and 5-HETE were stimulated by the addition of CaCl2 and Ca-ionophore A23187 (final concentrations 2 mM and 20 μM, respectively), and the incubation was conducted for 10 min at 37° C. 5-LO product formation was terminated by the addition of 3.0 ml of methanol/acetonitrile (1+1) containing NDGA as radical scavenger (final concentration 0.01 mM) and prostaglandin B2 PG B2 as chromatographic marker (final concentration 0.3 μM). The incubation mixture was kept in an ice bath for 20 min and then centrifuged at 4000 g for 5 min at 0° C. The supernatant was diluted with 5 ml of water and passed through a prewashed (10 ml of methanol and 5 ml of water, sequentially) octadecylsilane reversed phase cartridge (Baker). The eicosanoids were eluted with 3 ml of methanol, diluted with 3 ml of water and subjected to reversed phase high performance liquid chrometography (HPLC) analysis, performed on a 250×4 mm column packed with Nucleosil C18 (7 μm particles; Bischoff, Leonberg, Germany). The isocratic elution conditions of LTB4 were tetrahydrofuran (THF)/methanol/water/acetic acid (25+30+45+0.1), adjusted to pH 5.5 with concentrated NH3, at a flow rate of 0.9 ml/min (Kontron 420 pump), monitored at 280 nm with a Kontron 735 LC UV detector, whereas 5-HETE was monitored at 232 nm using methanol/water/acetic acid (77+23+0.1), pH 5.5,flow rate 1.0ml/min. Data were recorded on a MacLab data acquisition system (WissTech, Germany) and analysis was performed with the application Peaks on an Apple Macintosh Quadra 700 computer. Integrated areas of the peaks were compared to the PGB2 internal standard and to external standards of test samples. Molar absorption coefficients of Samuelsson et al., Borgeat, P. and B. Samuelsson, "Arachidonic Acid Metabolism in Polymorphonuclear Leukocytes: Effects of Ionophore A23187", Proc. Nat. Acad. Sci. USA, 76, 2148-2152 (1979), were used for calculations. Inhibition was calculated by comparison of the mean values of test compound (n=3) with control (n=6-8) activity: (1-test compound/control)×100.
By the above method, the anthracenone derivatives of the invention were evaluated for their ability to inhibit the production of LTB4 and 5-HETE in isolated bovine polymorphonuclear leucocytes (PMNL), see Walstra, P. et al., "Leukotriene Formation by Bovine Polymorphonuclear Leukocytes", Biochim. Biophys. Acta, 795,499-503 (1984); Dannhardt, G. and also M. Lehr, "In-Vitro Evaluation of 5-Lipoxygenase and Cyclo-Oxygenase Inhibitors Using Bovine Neutrophils and Platelets and HPLC", J. Pharm. Pharmacol., 44, 419-424 (1992). LTB4 and 5-HETE concentrations were measured by reversed-phase HPLC with UV detection.

For data set [1] the following is noted: therapeutic application; cited from earlier work.
For data set [2] the following is noted: Unna 1916; cited from earlier work.
The subject of data set [3] is LTB4 production in human neutrophils. As to conditions: depending on cell density, read-out: Inhibition of production of LTB4, IC50; cited from earlier work.
Data set [4] has as its system LTB4 production in bovine neutrophils. Conditions: read-out: Inhibition of production of LTB4, IC50; cited from earlier work.
Setting [5] is: HaCaT cells, N = 3, read-out: AA IC50 (antiproliferative activity).
Where [6] appears, read: Homo sapiens, HaCaT, HaCaT cells, N = 3, read-out: AA IC50 (antiproliferative activity).

Like-named read-outs stand apart in the source and are kept apart here. Where only a bound is given, the exact number is not on record here.

One may read the IC50 as the concentration at which inhibition is half-maximal. Turning to `O=C1c2c(O)cccc2C(Sc2ccccc2S)c2cccc(O)c21` [Compound 4c], the IC50 is no more than 100 nM in the data set on HaCaT cells (setting [5]) and 100 nM with HaCaT cells (setting [6]).
Consider `Nc1cccc(SC2c3cccc(O)c3C(=O)c3c(O)cccc32)c1` [Compound 3m], for which the IC50 in the data set with HaCaT cells (setting [6]) amounted to 1900 nM; on 5-LO (read-out: 5-LO IC50) it was 2400 nM.
As usually defined, the inhibition is how much of the control response was suppressed. Take `CCCCOC(=O)CCSC1c2cccc(O)c2C(=O)c2c(O)cccc21` [Compound 3e]: the concentration for half-maximal inhibition (IC50) with HaCaT cells (setting [6]) stood at 2300 nM. For the same molecule, the inhibition at 30 µM on 5-LO is 62%.
Consider `CC(SC1c2cccc(O)c2C(=O)c2c(O)cccc21)C(=O)O` (centres unmarked) [Compound 3b], for which, in the data set with HaCaT cells (setting [6]), the IC50 stood at 200 nM. The inhibition at 30 µM on 5-LO came to 28%.
With `CCCCOC(=O)CSC1c2cccc(O)c2C(=O)c2c(O)cccc21` [Compound 3a], the IC50 with HaCaT cells (setting [6]) is 2100 nM. In addition, at 5-LO, the inhibition at 30 µM is 8%.
The like results for `CCOC(=O)CCSC1c2cccc(O)c2C(=O)c2c(O)cccc21` [Compound 3d] were, in that order, 1600 nM and 30%.
Regarding `CCCC(=O)C1c2cccc(O)c2C(=O)c2c(O)cccc21` [butantrone, 10-Butyryl-Dithranol], the “Irritation / side effects” value in data set [1] was “elicits a widespread and delayed irritation effect in many patients”.
Turning to `O=C1c2c(O)cccc2Cc2cccc(O)c21` [anthralin, 1,8-dihydroxy-9(10H)-anthracenone], the IC50 with HaCaT cells (setting [6]) is 600 nM; at 5-LO (read-out: 5-LO IC50), 37000 nM; in data set [3] it was 7000 to 74000 nM; in data set [4], 37000 nM. In addition, the “Irritation / side effects” value in data set [1] is “non-affected skin surrounding a psoriatic lesion to which anthralin is applied frequently becomes irritated”. Also, in data set [2], the “Therapeutic effect in psoriasis” value is reported as “effective in the treatment of psoriasis”.
As to `Nc1ccccc1SC1c2cccc(O)c2C(=O)c2c(O)cccc21` [Compound 3l], the IC50 is no more than 100 nM in the data set with HaCaT cells (HaCaT cells, N = 3, listed as 31, read-out: AA IC50 (antiproliferative activity)); 100 nM in the data set on HaCaT cells (setting [6]); 2400 nM on 5-LO (read-out: 5-LO IC50).
With `COC(=O)CSC1c2cccc(O)c2C(=O)c2c(O)cccc21` [3-A, reference compound], the concentration for half-maximal inhibition (IC50) turned out to be 190000 nM in the data set with HaCaT cells (setting [6]) and 13000 nM against 5-LO.
As to `COc1cccc(SC2c3cccc(O)c3C(=O)c3c(O)cccc32)c1` [Compound 3j], the IC50 in the data set on HaCaT cells (setting [6]) worked out at 1800 nM. The inhibition at 30 µM on 5-LO is 100%.
Consider `O=C1c2ccccc2Cc2cccc(O)c21` [1-hydroxy-9(10H)-anthracenone], for which, in data set [2], the “Therapeutic effect in psoriasis” value is on record as “effective in the treatment of psoriasis”.
Regarding `COc1ccc(SC2c3cccc(O)c3C(=O)c3c(O)cccc32)cc1` [Compound 3k], the values for the IC50 with HaCaT cells (setting [6]) and at 5-LO (read-out: 5-LO IC50) were 1690 nM and 3200 nM, respectively.
As for `O=C1c2c(O)cccc2C(SCCCS)c2cccc(O)c21` [Compound 3f], the IC50 with HaCaT cells (setting [6]) was determined as 770 nM. Also, the inhibition at 30 µM at 5-LO was 14%.
For the molecule `COC(=O)CCSC1c2cccc(O)c2C(=O)c2c(O)cccc21` [Compound 3c], the results for the half-inhibitory concentration (IC50) with HaCaT cells (setting [6]) and at 5-LO (read-out: 5-LO IC50) were 1100 nM and 15000 nM, respectively.
As to `Nc1ccc(SC2c3cccc(O)c3C(=O)c3c(O)cccc32)cc1` [Compound 3n], the IC50 with HaCaT cells (setting [6]) stood at 900 nM; on 5-LO (read-out: 5-LO IC50) it was 7500 nM.
As for `O=C1c2c(O)cccc2C(SCc2ccccc2)c2cccc(O)c21` [4A, reference compound], the IC50 in the data set with HaCaT cells (Homo sapiens, HaCaT, read-out: AA IC50 (antiproliferative activity)) was 1400 nM. For the same molecule, the inhibition at 30 µM on 5-LO was determined as 46%.
For `COc1ccccc1SC1c2cccc(O)c2C(=O)c2c(O)cccc21` [Compound 3i], the IC50 in the data set with HaCaT cells (setting [6]) amounted to 4250 nM; on 5-LO (read-out: 5-LO IC50), 6300 nM.
In the case of `O=C1c2c(O)cccc2C(Sc2cccc(S)c2)c2cccc(O)c21` [Compound 4d], in the data set on HaCaT cells (setting [6]), the IC50 is greater than 5000 nM.
In the case of `CCOC(=O)CSC1c2cccc(O)c2C(=O)c2c(O)cccc21` [3-B, reference compound], in the data set on HaCaT cells (setting [6]), the IC50 stood at 4520 nM. Besides, the inhibition at 30 µM at 5-LO was 42%.
As to `O=C1c2c(O)cccc2C(Sc2ccccc2O)c2cccc(O)c21` [Compound 4a], the IC50 with HaCaT cells (setting [6]) turned out to be 1750 nM; at 5-LO (read-out: 5-LO IC50), 5000 nM.
With `O=C1c2c(O)cccc2C(Sc2ccc(O)cc2)c2cccc(O)c21` [Compound 4b, 1,8-Dihydroxy-10-[(4-hydroxyphenyl)thio]-9(10H)-anthracenone], the half-maximal inhibitory concentration (IC50) was no more than 100 nM in the data set with HaCaT cells (setting [5]), less than 100 nM in the data set with HaCaT cells (setting [6]) and 2400 nM at 5-LO (read-out: 5-LO IC50).
